# From US20130065936A1, “MODULATION OF BIOACTIVE EPOXY-FATTY ACID LEVELS BY PHOSPHODIESTERASE INHIBITORS” (THE REGENTS OF THE UNIVERSITY OF CALIFORNIA, priority 2010, published 2013)
# Columns and labels:
# Sprague-Dawley rats [1] = assay: Acute nociceptive responses in healthy rats, Hargreaves thermal withdrawal latency; assay type: in vivo, rat; settings: for antagonism of / interaction with rolipram-produced increase in thermal withdrawal latency: Hargreaves, celecoxib 20, fluconazole 40, micanozole 40, finasteride 10, picrotoxin 0.25 mg/kg
# Sprague-Dawley rats [2] = assay: Acute nociceptive responses in healthy rats, Randall-Selitto mechanical sensitivity assay; assay type: in vivo, rat; settings: picrotoxin 0.25 mg/kg s.c.
# [3] = tested on: endogenous oxylipin sEH substrates and products in rat plasma; assay: Oxylipin analysis in rat plasma after sEHI / PDE inhibitor administration (LC-ESI-MS/MS); assay type: in vivo; settings: rat plasma 45 min after s.c.; 1 mg/kg, pentoxyphilline 10 mg/kg;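 further: plasma from tail vein blood, oxylipins quantified by LC-ESI-MS/MS against deuterated internal standards following solid-phase extraction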
# sEH = target: T1, sEH (Homo sapiens, UniProt P34913); assay: sEH inhibition as stated in the general description (earlier tests, '506 patent); assay type: biochemical
# T1 sequence (P34913 1-555): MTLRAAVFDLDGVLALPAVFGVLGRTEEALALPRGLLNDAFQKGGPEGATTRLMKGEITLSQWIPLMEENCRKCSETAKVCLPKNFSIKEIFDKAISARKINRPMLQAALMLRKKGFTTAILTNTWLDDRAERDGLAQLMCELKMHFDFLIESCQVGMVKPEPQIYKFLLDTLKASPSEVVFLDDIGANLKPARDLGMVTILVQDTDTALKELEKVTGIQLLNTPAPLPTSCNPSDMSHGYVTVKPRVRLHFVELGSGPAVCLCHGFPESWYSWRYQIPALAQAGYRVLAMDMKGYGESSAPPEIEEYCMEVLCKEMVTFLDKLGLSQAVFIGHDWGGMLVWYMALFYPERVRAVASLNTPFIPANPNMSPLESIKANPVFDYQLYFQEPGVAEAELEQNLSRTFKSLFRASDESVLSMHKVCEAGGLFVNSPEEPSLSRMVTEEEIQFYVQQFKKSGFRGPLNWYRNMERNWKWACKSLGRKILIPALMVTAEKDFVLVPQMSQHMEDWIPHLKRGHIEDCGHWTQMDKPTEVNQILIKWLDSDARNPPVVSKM
# Sprague-Dawley rats [4] = assay: Open field activity; assay type: in vivo, rat; settings: 1 h following administration
# Method: For the measurement of open field activity animals were placed in an acrylic chamber (40×40×20 cm length×width×height) divided into 100 cm^2 (10×10 cm) sections. The number of crossings were recorded when both hind paws crossed into a neighboring cell.
molecule,measurement,setting,value
OC(Cn1cncn1)(Cn1cncn1)c1ccc(F)cc1F [fluconazole],antagonism of / interaction with rolipram-produced increase in thermal withdrawal latency,Sprague-Dawley rats [1],Noncompetitive antagonism
picrotoxin,antagonism of the increase in mechanical withdrawal threshold produced by rolipram/AUDA,Sprague-Dawley rats [2],effectively antagonized
same,antagonism of / interaction with rolipram-produced increase in thermal withdrawal latency,Sprague-Dawley rats [1],partially blocked rolipram
same,"thermal withdrawal latency / pain related behavior, change from predrug baseline","Sprague-Dawley rats [1]; healthy rats, s.c., about 1 h after administration",ineffective on its own in changing pain related behavior
same,antagonism of the increase in thermal withdrawal latency produced by rolipram/AUDA,Sprague-Dawley rats [1]; picrotoxin 0.25 mg/kg s.c.,effectively antagonized
Clc1ccc(COC(Cn2ccnc2)c2ccc(Cl)cc2Cl)c(Cl)c1 (stereo not drawn) [micanozole],antagonism of / interaction with rolipram-produced increase in thermal withdrawal latency,Sprague-Dawley rats [1],lack of antagonism
CC(=O)CCCCn1c(=O)c2c(ncn2C)n(C)c1=O [Pentoxyphilline],8(9)-EpETE,[3],1.27 nM
same,8(9)-EpETrE,[3],6.41 nM
same,"8,9-DiHETE",[3],0.30 nM
same,"8,9-DiHETrE",[3],0.54 nM
same,9(10)-EpOME,[3],59.92 nM
same,"9,10-DiHOME",[3],34.24 nM
same,10(11)-EpDPE,[3],7.86 nM
same,"10,11-DiHDPE",[3],0.71 nM
same,11(12)-EpETE,[3],0.80 nM
same,11(12)-EpETrE,[3],10.60 nM
same,"11,12-DiHETE",[3],0.45 nM
same,"11,12-DiHETrE",[3],1.77 nM
same,12(13)-EpOME,[3],87.05 nM
same,"12,13-DiHOME",[3],50.89 nM
same,13(14)-EpDPE,[3],4.20 nM
same,"13,14-DiHDPE",[3],0.79 nM
same,14(15)-EpETE,[3],0.69 nM
same,14(15)-EpETrE,[3],14.76 nM
same,"14,15-DiHETE",[3],1.06 nM
same,"14,15-DiHETrE",[3],1.73 nM
same,16(17)-EpDPE,[3],5.07 nM
same,"16,17-DiHDPE",[3],2.20 nM
same,17(18)-EpETE,[3],3.08 nM
same,"17,18-DiHETE",[3],2.81 nM
same,19(20)-EpDPE,[3],12.04 nM
same,"19,20-DiHDPE",[3],6.00 nM
same,"Ratio 8(9)-EpETE / 8,9-DiHETE",[3],4.15
same,"Ratio 8(9)-EpETrE / 8,9-DiHETrE",[3],11.91
same,"Ratio 9(10)-EpOME / 9,10-DiHOME",[3],1.75
same,"Ratio 10(11)-EpDPE / 10,11-DiHDPE",[3],11.13
same,"Ratio 11(12)-EpETE / 11,12-DiHETE",[3],1.79
same,"Ratio 11(12)-EpETrE / 11,12-DiHETrE",[3],6.00
same,"Ratio 12(13)-EpOME / 12,13-DiHOME",[3],1.71
same,"Ratio 13(14)-EpDPE / 13,14-DiHDPE",[3],5.30
same,"Ratio 14(15)-EpETE / 14,15-DiHETE",[3],0.66
same,"Ratio 14(15)-EpETrE / 14,15-DiHETrE",[3],8.52
same,"Ratio 16(17)-EpDPE / 16,17-DiHDPE",[3],2.30
same,"Ratio 17(18)-EpETE / 17,18-DiHETE",[3],1.10
same,"Ratio 19(20)-EpDPE / 19,20-DiHDPE",[3],2.01
same,total Di-hydroxyeicosanoid,[3],423.15 nM
same,total Epoxyeicosanoid,[3],497.36 nM
same,total Ratio epoxy/dihydroxy eicosanoids,[3],1.18
CC(C)(C)NC(=O)[C@H]1CC[C@H]2[C@@H]3CC[C@H]4NC(=O)C=C[C@]4(C)[C@H]3CC[C@]12C [finasteride],antagonism of / interaction with rolipram-produced increase in thermal withdrawal latency,Sprague-Dawley rats [1],competitive antagonism
CCc1ccc2c(-c3cccc(Cl)c3)nc(=O)n(CC)c2n1 [YM976],8(9)-EpETE,[3],2.74 nM
same,8(9)-EpETrE,[3],13.59 nM
same,"8,9-DiHETE",[3],0.29 nM
same,"8,9-DiHETrE",[3],0.58 nM
same,9(10)-EpOME,[3],147.05 nM
same,"9,10-DiHOME",[3],37.07 nM
same,10(11)-EpDPE,[3],20.16 nM
same,"10,11-DiHDPE",[3],0.82 nM
same,11(12)-EpETE,[3],2.23 nM
same,11(12)-EpETrE,[3],22.80 nM
same,"11,12-DiHETE",[3],0.48 nM
same,"11,12-DiHETrE",[3],1.55 nM
same,12(13)-EpOME,[3],159.31 nM
same,"12,13-DiHOME",[3],57.32 nM
same,13(14)-EpDPE,[3],10.28 nM
same,"13,14-DiHDPE",[3],0.81 nM
same,14(15)-EpETE,[3],1.99 nM
same,14(15)-EpETrE,[3],26.50 nM
same,"14,15-DiHETE",[3],1.19 nM
same,"14,15-DiHETrE",[3],1.84 nM
same,16(17)-EpDPE,[3],10.41 nM
same,"16,17-DiHDPE",[3],2.22 nM
same,17(18)-EpETE,[3],4.49 nM
same,"17,18-DiHETE",[3],2.95 nM
same,19(20)-EpDPE,[3],18.10 nM
same,"19,20-DiHDPE",[3],6.24 nM
same,"Ratio 8(9)-EpETE / 8,9-DiHETE",[3],9.62
same,"Ratio 8(9)-EpETrE / 8,9-DiHETrE",[3],23.44
same,"Ratio 9(10)-EpOME / 9,10-DiHOME",[3],3.97
same,"Ratio 10(11)-EpDPE / 10,11-DiHDPE",[3],24.59
same,"Ratio 11(12)-EpETE / 11,12-DiHETE",[3],4.69
same,"Ratio 11(12)-EpETrE / 11,12-DiHETrE",[3],14.76
same,"Ratio 12(13)-EpOME / 12,13-DiHOME",[3],2.78
same,"Ratio 13(14)-EpDPE / 13,14-DiHDPE",[3],12.66
same,"Ratio 14(15)-EpETE / 14,15-DiHETE",[3],1.67
same,"Ratio 14(15)-EpETrE / 14,15-DiHETrE",[3],14.43
same,"Ratio 16(17)-EpDPE / 16,17-DiHDPE",[3],4.68
same,"Ratio 17(18)-EpETE / 17,18-DiHETE",[3],1.52
same,"Ratio 19(20)-EpDPE / 19,20-DiHDPE",[3],2.90
same,total Di-hydroxyeicosanoid,[3],423.59 nM
same,total Epoxyeicosanoid,[3],535.16 nM
same,total Ratio epoxy/dihydroxy eicosanoids,[3],1.26
"CCCCCCCCCCCCNC(=O)NC12CC3CC(CC(C3)C1)C2 [ADU, N-Adamantyl-N′-dodecyl urea]",activity as inhibitor of sEH,sEH,particularly high activity on sEH
CN(C(=O)CCCOc1ccc2[nH]c(=O)ccc2c1)C1CCCCC1 [Cilostamide],8(9)-EpETE,[3],0.74 nM
same,8(9)-EpETrE,[3],3.13 nM
same,"8,9-DiHETE",[3],0.27 nM
same,"8,9-DiHETrE",[3],0.47 nM
same,9(10)-EpOME,[3],32.41 nM
same,"9,10-DiHOME",[3],29.53 nM
same,10(11)-EpDPE,[3],4.06 nM
same,"10,11-DiHDPE",[3],0.66 nM
same,11(12)-EpETE,[3],0.45 nM
same,11(12)-EpETrE,[3],4.44 nM
same,"11,12-DiHETE",[3],0.43 nM
same,"11,12-DiHETrE",[3],1.60 nM
same,12(13)-EpOME,[3],51.82 nM
same,"12,13-DiHOME",[3],37.98 nM
same,13(14)-EpDPE,[3],2.23 nM
same,"13,14-DiHDPE",[3],0.73 nM
same,14(15)-EpETE,[3],0.49 nM
same,14(15)-EpETrE,[3],7.71 nM
same,"14,15-DiHETE",[3],1.24 nM
same,"14,15-DiHETrE",[3],1.82 nM
same,16(17)-EpDPE,[3],2.94 nM
same,"16,17-DiHDPE",[3],2.28 nM
same,17(18)-EpETE,[3],2.66 nM
same,"17,18-DiHETE",[3],3.08 nM
same,19(20)-EpDPE,[3],8.95 nM
same,"19,20-DiHDPE",[3],5.50 nM
same,"Ratio 8(9)-EpETE / 8,9-DiHETE",[3],2.81
same,"Ratio 8(9)-EpETrE / 8,9-DiHETrE",[3],6.69
same,"Ratio 9(10)-EpOME / 9,10-DiHOME",[3],1.10
same,"Ratio 10(11)-EpDPE / 10,11-DiHDPE",[3],6.13
same,"Ratio 11(12)-EpETE / 11,12-DiHETE",[3],1.04
same,"Ratio 11(12)-EpETrE / 11,12-DiHETrE",[3],2.78
same,"Ratio 12(13)-EpOME / 12,13-DiHOME",[3],1.36
same,"Ratio 13(14)-EpDPE / 13,14-DiHDPE",[3],3.05
same,"Ratio 14(15)-EpETE / 14,15-DiHETE",[3],0.39
same,"Ratio 14(15)-EpETrE / 14,15-DiHETrE",[3],4.24
same,"Ratio 16(17)-EpDPE / 16,17-DiHDPE",[3],1.29
same,"Ratio 17(18)-EpETE / 17,18-DiHETE",[3],0.86
same,"Ratio 19(20)-EpDPE / 19,20-DiHDPE",[3],1.63
same,total Di-hydroxyeicosanoid,[3],322.82 nM
same,total Epoxyeicosanoid,[3],1014.12 nM
same,total Ratio epoxy/dihydroxy eicosanoids,[3],3.14
CC(=O)N1CCC(NC(=O)Nc2ccc(OC(F)(F)F)cc2)CC1 [TPAU],voluntary movement in an open-field chamber (motor depressant effect),Sprague-Dawley rats [4],indistinguishable from baseline activity
